{"source": "patent US7659400B2", "about": "“Radiolabelled benzamide analogues, their synthesis and use in diagnostic imaging” (Washington University, priority 2003, dated 2010)", "key": {"[1]": {"target": "σ1 receptors (Homo sapiens, UniProt Q99720)", "sequence (Q99720 whole entry)": "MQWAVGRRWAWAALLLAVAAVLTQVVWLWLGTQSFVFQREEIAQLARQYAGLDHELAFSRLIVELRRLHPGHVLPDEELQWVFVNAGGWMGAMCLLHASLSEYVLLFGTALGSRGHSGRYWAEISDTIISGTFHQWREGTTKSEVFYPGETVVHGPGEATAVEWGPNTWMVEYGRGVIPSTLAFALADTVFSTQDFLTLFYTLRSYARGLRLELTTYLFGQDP", "settings": "cited from earlier work"}, "[2]": {"target": "σ2 receptors (Homo sapiens, UniProt Q5BJF2)", "sequence (Q5BJF2 whole entry)": "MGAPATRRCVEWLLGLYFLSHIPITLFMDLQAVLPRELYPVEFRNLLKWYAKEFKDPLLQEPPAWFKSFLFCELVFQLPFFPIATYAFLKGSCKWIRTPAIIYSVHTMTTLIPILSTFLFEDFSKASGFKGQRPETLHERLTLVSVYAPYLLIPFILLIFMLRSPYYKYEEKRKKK", "settings": "cited from earlier work"}, "[3]": {"tested_on": "EMT-6 tumors", "assay": "Biodistribution of 18F-labeled ligands in mice bearing EMT-6 tumors", "assay_type": "in vivo, female Balb/c mice", "method": "This example illustrates in vivo evaluation of compounds of the present teachings. All animal experiments were conducted in compliance with the Guidelines for the Care and Use of Research Animals established by Washington University's Animal Studies Committee. EMT-6 mouse mammary adenocarcinoma cells (5×10^5 cells in 100 uL of phosphate-buffered saline) were implanted subcutaneously in the scapular region of female Balb/c mice (˜2-month old and 17-22 g; Charles River Laboratories). […] Groups of at least 4 mice were used for each time point. […] After counting, the percentage of the injected dose per gram of tissue (%ID/g) was calculated. The tumor/organ ratios were calculated by dividing the %ID/g of the tumor by the %ID/g of each organ."}, "[4]": {"target": "T1, σ2 receptors (Mus musculus, UniProt Q8VD00)", "T1 construct": "from tissue; host or cells: EMT-6 tumours in female Balb/c mice, in vivo", "T1 sequence (Q8VD00 1-176)": "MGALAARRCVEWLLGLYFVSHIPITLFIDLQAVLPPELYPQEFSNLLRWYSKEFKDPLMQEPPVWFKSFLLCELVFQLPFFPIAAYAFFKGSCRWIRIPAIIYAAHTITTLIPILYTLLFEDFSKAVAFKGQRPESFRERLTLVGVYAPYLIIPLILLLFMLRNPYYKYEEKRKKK", "assay": "Blocking study: co-injection of 1 mg/kg YUN-143 in EMT-6 tumor-bearing mice", "assay_type": "in vivo", "settings": "1 mg/kg YUN-143, 1 h post-injection", "method": "These blocking studies in tumor-bearing mice were conducted by co-injecting 1 mg/kg of cold N-(4-fluorobenzyl) piperidinyl-4-(3-bromophenyl)acetamide (YUN-143) with [^18F]3c or [^18F]3f."}, "[5]": {"target": "T2, σ2 receptors (Rattus norvegicus, UniProt Q5U3Y7)", "T2 construct": "conducted using rat liver membrane homogenates; from tissue; host or cells: rat liver membrane homogenates", "T2 sequence (Q5U3Y7 1-176)": "T1 sequence (Q8VD00 1-176) with L4V, A5T, L26M, V33L, L71F, A105V, L118I, V127I, S136N, Y169F", "assay": "σ2 receptor binding assay, [^3H]DTG in the presence of (+)-pentazocine, rat liver membrane homogenates", "method": "The incubation time was 120 min at room temperature. […] All other procedures were identical to those described for the σ1 receptor binding assay above."}, "[6]": {"assay": "Log D calculated using the program ACD/log D", "settings": "spacer group four carbons (3c) versus two carbons (3a)"}, "[7]": {"target": "T3, σ1 receptors (Cavia porcellus, UniProt Q60492)", "T3 sequence (Q60492 whole entry)": "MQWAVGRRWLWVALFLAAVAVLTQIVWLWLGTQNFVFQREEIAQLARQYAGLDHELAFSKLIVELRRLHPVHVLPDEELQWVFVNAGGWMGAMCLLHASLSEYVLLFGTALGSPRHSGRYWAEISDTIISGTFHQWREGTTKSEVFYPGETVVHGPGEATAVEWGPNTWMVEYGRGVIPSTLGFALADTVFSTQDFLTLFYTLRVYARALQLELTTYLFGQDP", "procedure": "(§1) In these assays, the novel sigma ligands were dissolved in N,N-dimethylformamide (DMF), DMSO or ethanol, and then diluted in 50 mM Tris-HCl buffer containing 150 mM NaCl and 100 mM EDTA at pH 7.4 prior to performing the σ1 and σ2 receptor binding assays. […] The samples were harvested and filtered rapidly through a 96-well fiber glass filter plate (millipore, Billerica, Mass.) that had been presoaked with 100 μL of 50 mM Tris-HCl buffer at pH 8.0 for 1 h.\n(§2) The Ki values were determine from Scatchard plots."}, "[8]": {"target": "T3, σ1 receptors", "assay": "σ1 receptor binding assay, [^3H](+)-pentazocine, guinea pig brain membrane homogenates", "settings": "spacer group four carbons (3c) versus two carbons (3a)", "procedure": "as §1, §2"}}, "note": "Substitutions are numbered along the chain they refer to. Values joined by “and” are separate entries in the source; they are usually repeats but may differ in a detail not shown here. Equal values may be shown once."}
{"smiles": "O=C(Cc1cccc(Br)c1)NC1CCN(Cc2ccc(F)cc2)CC1", "note": "[YUN-143, N-(4-fluorobenzyl)piperidinyl-4-(3-bromophenyl) acetamide]", "values": [{"measurement": "affinity for σ1 receptors (in words)", "setting": "[1]", "result": "high affinity"}, {"measurement": "affinity for σ2 receptors (in words)", "setting": "[2]", "result": "high affinity"}]}
{"smiles": "COc1cc2c(cc1OC)CN(CCCCNC(=O)c1cc(I)cc(OC)c1OCC[18F])CC2", "note": "[[^18F]3f]", "values": [{"measurement": "Biodistribution: blood", "setting": "[3]; 5 min after i.v. injection", "result": "1.82 ± 0.25", "unit": "%ID/g"}, {"measurement": "Biodistribution: bone", "setting": "[3]; 5 min after i.v. injection", "result": "2.23 ± 0.56", "unit": "%ID/g"}, {"measurement": "Biodistribution: brain", "setting": "[3]; 5 min after i.v. injection", "result": "0.71 ± 0.09", "unit": "%ID/g"}, {"measurement": "Biodistribution: fat", "setting": "[3]; 5 min after i.v. injection", "result": "4.13 ± 0.86", "unit": "%ID/g"}, {"measurement": "Biodistribution: heart", "setting": "[3]; 5 min after i.v. injection", "result": "5.60 ± 0.45", "unit": "%ID/g"}, {"measurement": "Biodistribution: kidney", "setting": "[3]; 5 min after i.v. injection", "result": "19.98 ± 1.66", "unit": "%ID/g"}, {"measurement": "Biodistribution: liver", "setting": "[3]; 5 min after i.v. injection", "result": "15.21 ± 2.21", "unit": "%ID/g"}, {"measurement": "Biodistribution: lung", "setting": "[3]; 5 min after i.v. injection", "result": "18.47 ± 3.07", "unit": "%ID/g"}, {"measurement": "Biodistribution: muscle", "setting": "[3]; 5 min after i.v. injection", "result": "2.50 ± 0.33", "unit": "%ID/g"}, {"measurement": "Biodistribution: tumor (tumor uptake)", "setting": "[3]; 5 min after i.v. injection", "result": "3.05 ± 0.43", "unit": "%ID/g"}, {"measurement": "Biodistribution: blood", "setting": "[3]; 30 min after i.v. injection", "result": "1.23 ± 0.28", "unit": "%ID/g"}, {"measurement": "Biodistribution: bone", "setting": "[3]; 30 min after i.v. injection", "result": "2.01 ± 0.53", "unit": "%ID/g"}, {"measurement": "Biodistribution: brain", "setting": "[3]; 30 min after i.v. injection", "result": "0.27 ± 0.04", "unit": "%ID/g"}, {"measurement": "Biodistribution: fat", "setting": "[3]; 30 min after i.v. injection", "result": "1.36 ± 0.50", "unit": "%ID/g"}, {"measurement": "Biodistribution: heart", "setting": "[3]; 30 min after i.v. injection", "result": "1.54 ± 0.31", "unit": "%ID/g"}, {"measurement": "Biodistribution: kidney", "setting": "[3]; 30 min after i.v. injection", "result": "7.73 ± 2.25", "unit": "%ID/g"}, {"measurement": "Biodistribution: liver", "setting": "[3]; 30 min after i.v. injection", "result": "10.73 ± 2.98", "unit": "%ID/g"}, {"measurement": "Biodistribution: lung", "setting": "[3]; 30 min after i.v. injection", "result": "3.75 ± 0.58", "unit": "%ID/g"}, {"measurement": "Biodistribution: muscle", "setting": "[3]; 30 min after i.v. injection", "result": "0.73 ± 0.14", "unit": "%ID/g"}, {"measurement": "Biodistribution: tumor (tumor uptake)", "setting": "[3]; 30 min after i.v. injection", "result": "3.11 ± 0.16", "unit": "%ID/g"}, {"measurement": "Biodistribution: tumor (tumor uptake)", "setting": "[3]; 60 min (1 h) after i.v. injection", "result": "2.15 %ID/g and 2.15 ± 0.25 %ID/g"}, {"measurement": "Biodistribution: blood", "setting": "[3]; 60 min after i.v. injection", "result": "0.65 ± 0.09", "unit": "%ID/g"}, {"measurement": "Biodistribution: bone", "setting": "[3]; 60 min after i.v. injection", "result": "0.93 ± 0.16", "unit": "%ID/g"}, {"measurement": "Biodistribution: brain", "setting": "[3]; 60 min after i.v. injection", "result": "0.14 ± 0.02", "unit": "%ID/g"}, {"measurement": "Biodistribution: fat", "setting": "[3]; 60 min after i.v. injection", "result": "0.47 ± 0.07", "unit": "%ID/g"}, {"measurement": "Biodistribution: heart", "setting": "[3]; 60 min after i.v. injection", "result": "0.69 ± 0.06", "unit": "%ID/g"}, {"measurement": "Biodistribution: kidney", "setting": "[3]; 60 min after i.v. injection", "result": "3.50 ± 0.80", "unit": "%ID/g"}, {"measurement": "Biodistribution: liver", "setting": "[3]; 60 min after i.v. injection", "result": "5.57 ± 0.31", "unit": "%ID/g"}, {"measurement": "Biodistribution: lung", "setting": "[3]; 60 min after i.v. injection", "result": "1.51 ± 0.13", "unit": "%ID/g"}, {"measurement": "Biodistribution: muscle", "setting": "[3]; 60 min after i.v. injection", "result": "0.40 ± 0.07", "unit": "%ID/g"}, {"measurement": "Biodistribution: tumor (tumor uptake)", "setting": "[3]; 120 min (2 h) after i.v. injection", "result": "1.15 %ID/g and 1.15 ± 0.23 %ID/g"}, {"measurement": "Biodistribution: blood", "setting": "[3]; 120 min after i.v. injection", "result": "0.28 ± 0.01", "unit": "%ID/g"}, {"measurement": "Biodistribution: bone", "setting": "[3]; 120 min after i.v. injection", "result": "0.59 ± 0.09", "unit": "%ID/g"}, {"measurement": "Biodistribution: brain", "setting": "[3]; 120 min after i.v. injection", "result": "0.08 ± 0.01", "unit": "%ID/g"}, {"measurement": "Biodistribution: fat", "setting": "[3]; 120 min after i.v. injection", "result": "0.17 ± 0.05", "unit": "%ID/g"}, {"measurement": "Biodistribution: heart", "setting": "[3]; 120 min after i.v. injection", "result": "0.39 ± 0.04", "unit": "%ID/g"}, {"measurement": "Biodistribution: kidney", "setting": "[3]; 120 min after i.v. injection", "result": "1.34 ± 0.10", "unit": "%ID/g"}, {"measurement": "Biodistribution: liver", "setting": "[3]; 120 min after i.v. injection", "result": "2.61 ± 0.69", "unit": "%ID/g"}, {"measurement": "Biodistribution: lung", "setting": "[3]; 120 min after i.v. injection", "result": "0.74 ± 0.03", "unit": "%ID/g"}, {"measurement": "Biodistribution: muscle", "setting": "[3]; 120 min after i.v. injection", "result": "0.15 ± 0.01", "unit": "%ID/g"}, {"measurement": "tumor:fat ratio", "setting": "[3]; 2 h after i.v. injection", "result": "~7"}, {"measurement": "tumor:muscle ratio", "setting": "[3]; 2 h after i.v. injection", "result": "~8"}, {"measurement": "clearance from the blood (in words)", "setting": "[3]; mouse, in vivo", "result": "rapid clearance from the blood"}, {"measurement": "decrease in the tumor:fat ratio on co-injection of YUN-143", "setting": "[4]", "result": "~50", "unit": "%"}, {"measurement": "decrease in the tumor:muscle ratio on co-injection of YUN-143", "setting": "[4]", "result": "~50", "unit": "%"}]}
{"smiles": "COc1cc2c(cc1OC)CN(CCCCNC(=O)c1cc(C)ccc1OCCF)CC2", "note": "[compound 3c, N-[6,7-dimethoxy-3,4-dihydro-1H-isoquinolin-2-yl-butyl]-2-(2-fluoro-ethoxy)-5-methyl-benzamide]", "values": [{"measurement": "σ1:σ2 Ratio", "setting": "[5]; ratio of Ki values", "result": 48}, {"measurement": "increase in the affinity for σ2 receptors relative to 3a", "setting": "[5]; spacer group four carbons (3c) versus two carbons (3a)", "result": 15, "unit": "fold"}, {"measurement": "increase in the log D value relative to 3a", "setting": "[6]", "result": 0.5, "unit": "unit"}, {"measurement": "Ki", "setting": "[7]", "result": "330 ± 25", "unit": "nM"}, {"measurement": "increase in the affinity for σ1 receptors relative to 3a", "setting": "[8]", "result": 69, "unit": "fold"}]}
